Experimental data as given in patent publication US7148230B2, “Quinazoline derivatives” (AstraZeneca AB, priority 2003, dated 2006).

Experiments:
EGFR tyrosine kinase = target: T1, EGFR tyrosine kinase (Homo sapiens, UniProt P00533); experiment: Protein tyrosine kinase phosphorylation assay, Test (a), EGFR; assay type: biochemical; details: ATP at Km concentration; read-out: IC50 (nM) Test (a) (Inhibition of EGFR tyrosine kinase protein phosphorylation)
T1 construct: Recombinant intracellular fragments of EGFR, erbB2 and erbB4; made in house; host or cells: baculovirus/Sf21 insect cells (cleared lysate used)
Protocol: (§1) This test measures the ability of a test compound to inhibit the phosphorylation of a tyrosine containing polypeptide substrate by an erbB tyrosine kinase enzyme.
(§2) Recombinant intracellular fragments of EGFR, erbB2 and erbB4 (accession numbers X00588, X03363 and L07868 respectively) were cloned and expressed in the baculovirus/Sf21 system. Lysates were prepared from these cells by treatment with ice-cold lysis buffer (20 mM N-2-hydroxyethylpiperizine-N′-2-ethanesulfonic acid (HEPES) pH7.5, 150 mM NaCl, 10% glycerol, 1% Triton X-100, 1.5 mM MgCl2, 1 mM ethylene glycol-bis(β-aminoethyl ether) N′,N′,N′,N′-tetraacetic acid (EGTA), plus protease inhibitors and then cleared by centrifugation.
(§3) Constitutive kinase activity of the recombinant protein was determined by its ability to phosphorylate a synthetic peptide (made up of a random co-polymer of Glutamic Acid, Alanine and Tyrosine in the ratio of 6:3:1). […]
(§4) The immobilised phospho-peptide product of the reaction was detected by immunological methods. […] After further washing, HRP activity in each well of the plate was measured colorimetrically using 22′-Azino-di-[3-ethylbenzthiazoline sulfonate (6)]diammonium salt crystals (ABTS™ from Roche) as a substrate.
(§5) Quantification of colour development and thus enzyme activity was achieved by the measurement of absorbance at 405 nm on a Molecular Devices ThermoMax microplate reader. […]

erbB2 tyrosine kinase = target: T2, erbB2 tyrosine kinase (Homo sapiens, UniProt P04626); experiment: Protein tyrosine kinase phosphorylation assay, Test (a), erbB2; assay type: biochemical; details: ATP at Km concentration; read-out: IC50 (nM) Test (a) (Inhibition of erbB2 tyrosine kinase protein phosphorylation)
T2 construct: Recombinant intracellular fragments of EGFR, erbB2 and erbB4; made in house; host or cells: baculovirus/Sf21 insect cells (cleared lysate used)
Protocol: as §1, §2, §3, §4, §5

T1 sequence (P00533 669-1210 limits assumed): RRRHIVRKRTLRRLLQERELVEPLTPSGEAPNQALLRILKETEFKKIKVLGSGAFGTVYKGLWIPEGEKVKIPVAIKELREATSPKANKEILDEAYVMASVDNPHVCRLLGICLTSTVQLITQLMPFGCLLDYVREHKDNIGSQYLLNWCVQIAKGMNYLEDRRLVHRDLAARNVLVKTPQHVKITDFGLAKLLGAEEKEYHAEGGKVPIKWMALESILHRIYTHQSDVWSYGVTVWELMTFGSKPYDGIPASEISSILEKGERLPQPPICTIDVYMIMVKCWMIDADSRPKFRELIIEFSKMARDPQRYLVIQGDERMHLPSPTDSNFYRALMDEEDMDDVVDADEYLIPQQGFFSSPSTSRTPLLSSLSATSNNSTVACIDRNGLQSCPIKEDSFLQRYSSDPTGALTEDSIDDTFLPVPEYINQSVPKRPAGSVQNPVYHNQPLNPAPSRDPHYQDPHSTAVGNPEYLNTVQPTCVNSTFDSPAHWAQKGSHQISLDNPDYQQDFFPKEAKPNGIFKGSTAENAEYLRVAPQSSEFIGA
T2 sequence (P04626 676-1255 limits assumed): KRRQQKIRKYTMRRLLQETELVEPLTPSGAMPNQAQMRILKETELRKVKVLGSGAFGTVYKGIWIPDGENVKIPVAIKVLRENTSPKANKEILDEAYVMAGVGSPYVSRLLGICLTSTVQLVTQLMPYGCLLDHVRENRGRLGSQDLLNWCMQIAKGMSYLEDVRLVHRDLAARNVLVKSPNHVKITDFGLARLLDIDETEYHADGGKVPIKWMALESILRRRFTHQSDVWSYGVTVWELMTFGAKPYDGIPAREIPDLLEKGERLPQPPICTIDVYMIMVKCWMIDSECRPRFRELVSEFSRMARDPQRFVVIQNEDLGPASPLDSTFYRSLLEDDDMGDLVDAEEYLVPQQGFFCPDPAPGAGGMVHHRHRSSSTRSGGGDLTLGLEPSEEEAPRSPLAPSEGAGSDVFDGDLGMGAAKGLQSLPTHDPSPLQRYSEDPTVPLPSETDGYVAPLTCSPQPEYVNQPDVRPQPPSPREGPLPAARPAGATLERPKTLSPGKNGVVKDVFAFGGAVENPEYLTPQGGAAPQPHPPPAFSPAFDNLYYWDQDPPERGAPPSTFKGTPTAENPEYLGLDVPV

With `COc1cc2ncnc(Nc3cccc(Cl)c3F)c2cc1OC1CCN(C(=O)CO)CC1` [Example 1, 4-(3-chloro-2-fluoroanilino)-6-[1-(hydroxyacetyl)piperidin-4-yloxy]-7-methoxyquinazoline] the IC50 (EGFR tyrosine kinase) was 3 nM, the melting point was 195.5 to 196.5 °C and the IC50 (erbB2 tyrosine kinase) was 59 nM.
